Entries after “also recorded” stand apart in the source; their conditions may differ. Where two headings read alike, the source gives them in different places.
What was measured:
MDA-MB-231 cells [1] = assay: Colony formation assay in MDA-MB-231 cells; type: cell-based; details: Homo sapiens; MDA-MB-231, 48 hours drug then 10-14 days; read-out: effective concentration (half-maximal), CFA
Description: (§1) (A) MTT assay was performed after 24 hours. […] (B) LDH assay was performed after […]. LDH release by untreated cells was set to 1. Relative fold increase is shown (n=3).
(§2) (A) MTT assay was performed after 24 hours. Viability of untreated cells was set at 100% (data points are averages of 2 experiments). (B) LDH assay was performed after 24 hours. LDH release by untreated cells was set to 1. Relative fold increase is shown (averages from 2 experiments). (C) Representative photos show typical colony formation after initial 48 hours of drug treatment. In all cases of combination treatment with 3-BP mixed with […] (3-BP+POH), the indicated concentrations refer to each individual drugs, i.e., 100 μM 3-BP+POH means that 100 μM 3-BP was combined with 100 μM POH.
Depending on the cell line (and plating efficiency), 250-800 cells were seeded into each well of a 6-well plate and treated as described in detail previously. After 12-16 days, colonies (defined as groups of >50 cells) were visualized by staining for 4 hours with 1% methylene blue (in methanol), and then were-counted. Experiments were repeated at least once, but usually more often under different conditions.

[2] = test system: all cell types (breast, brain, ovary, colon cancer cell lines); assay: Summary of cytotoxicity over MTT, LDH and colony formation assays (FIGS. 2-5); type: cell-based, human; details: for IC50: Homo sapiens
Source text: (§3) The tumor cell-killing potency of NEO218 was characterized by in vitro, short-term MTT assays (measuring viability of cells via determination of metabolic activity), LDH assays (measuring the release of lactate dehydrogenase as an indicator of leaky cell membranes, which are indicative of dying cells), and colony-formation assays (CFA, which determine long-term survival of drug-treated cells and their ability to spawn a colony of descendants). Several established cell lines derived from cancers of the breast were used as target cells (including MDA-MB-231; MDA-MB-468; T47D; MCF7; MCF7/Dox; BTB12), brain (T98G; U251), ovary (A2780), and colon (HCT116). In all cases, cells in culture were exposed to increasing concentrations of agents for 24 or 48 hours.

MDA-MB-231 cells [3] = assay: MTT short-term toxicity assay in MDA-MB-231 cells; type: cell-based, human
Description: as §1, §2
(§4) Methylthiazoletetrazolium (MTT) assays were performed as described earlier.

HCT116 cells = assay: MTT assay with or without supplemental pyruvate; type: cell-based, human; details: HCT116, MTT after 24 hours
Description: (A) HCT116 cells were treated with 40 μM 3-BP or NEO218 in the presence or absence of 1 mM NAC, 1 mM GSH, or 50 mM methyl-pyruvate (or sodium pyruvate, which produced similar outcomes). Cell viability was determined 24 hours later by MTT assay. (B) HCT116 cells were treated with 30 or 100 μM 3-BP or NEO218. After 30 minutes, cell lysates were prepared and analyzed for GAPDH activity. (C) Lysates from non-drug-treated MDA-MB-231 cells were mixed with 3-BP or NEO218 in the presence or absence of NAC or GSH at the concentrations mentioned in A. After 1 hour of incubation, GAPDH activity was determined. GAPDH activity in the absence of drug treatment was set at 100% (corresponding to 0.06 units/min×10^6 cells).
To test this hypothesis, HCT116 cells were treated with increasing concentrations of NEO218 and 3-BP (individually) in the presence or absence of 10 mM pyruvate. Viability of cells was determined 24 hours later by MTT cell viability assay.

[4] = test system: HCT116, LN229, T98G, U251, MCF7, T47D, MDA-MB-231, MDA-MB-468, BTM-12, ME16C cells; assay: 24-hour MTT assay in 10 cell lines with MCT-1 levels (FIGS. 16A-16C); type: cell-based; details: Homo sapiens, read-out: IC50 (concentration of drug that kills 50% of the cell population)
Source text: The following established human cell lines were used: (A) HCT116 colon carcinoma; (B) LN229, T98G, and U251 glioblastoma; (C) MCF7, MDA-MB-231, MDA-MB-468, BTM-12, and T47D breast carcinoma; and ME16C normal mammary gland epithelium cells (immortalized with telomerase). […] Bars with error bars represent ≥3 measurements, whereas graphs without error bars show the average of two independent measurements. The middle panels show MCT-1 protein levels for each cell line, as determined by Western blot with actin as the loading control.
as §4
Because it was reported that the cytotoxic effects of 3-BP in vitro depend on the presence of MCT-1, we began our study by characterizing MCT-1 expression levels along with cytotoxicity of 3-BP in the various tumor cell lines to be used in our study. We included one colon carcinoma cell line (HCT116), three glioblastoma cell lines (LN229, T98G, U251), four breast cancer cell lines (MCF7, T47D, MDA-MB-231, MDA-MB-468), one culture of primary breast cancer cells (BTM-12), and an established line of normal breast epithelial cells (ME16C). For all 10 cell lines, we established IC50 (concentration of drug that kills 50% of the cell population) by MTT assay, along with MCT-1 protein levels by Western blot analysis. As summarized in FIGS. 16A-16C, MCT-1 levels varied greatly in the different cells, and so did their IC50 values.

[5] = test system: MDA-MB-231, T47D, T98G, U251, HCT116 and A2780 cancer cells; assay: MTT assay, cell viability after 48 hours in six cancer cell lines; type: cell-based, human
Source text: as §3
Cell lines from different cancer types were treated with increasing concentrations of 3-bromopyruvate (3-BP) or NEO218. After 48 hours, cell viability was measured by MTT assay. MDA-MB-231 and T47D are breast cancer cells; T98G and U251 are brain cancer (glioblastoma) cells; HCT116 are colon cancer cells; A2780 are ovarian cancer cells.

tumor cell lines = assay: cells; type: cell-based, human
Description: Different tumor cell lines were treated with 3-BP mixed with POH, and the effects were compared to the effects of NEO218, as well as to 3-BP alone. The cells were treated for 24 hours, and then the MTT assay was conducted to measure cell viability.

[6] = all cell types, FIGS. 2-5, read-out: IC50 (ability of a drug to reduce cell survival by 50%)

| Structure (SMILES) | IC50 (MDA-MB-231 cells [1]) | IC50 [2, 6] | IC50 ([2]; cell types in which 3-BP is not similarly potent, read-out: concentrations required for cell death in less sensitive cell types) | IC50 (MDA-MB-231 cells [3]; Homo sapiens, MDA-MB-231, 24 hours, read-out: effective concentration (half-maximal), MTT assay) | effect of supplemental pyruvate on drug-induced cell death (HCT116 cells) | IC50 ([4]; 24 h, cells with high MCT-1 levels (HCT116, U251, ME16C, MDA-MB-468), 24 hours) | IC50 ([4]; 24 h, cells with lesser MCT-1 levels, 24 hours) | IC50 ([5]; Homo sapiens, all six cell lines) | cancer cell killing effects compared with 3-BP ([5]; MTT) | cytotoxic potency compared with the other treatments (tumor cell lines) | killing of drug-resistant cells ([2]; T98G (TMZ-resistant) and MCF7/Dox (multi-drug-resistant) cells) | potency in MDA-MB-231 compared with HCT116 / with 3-BP alone (MDA-MB-231 cells [3]; MTT, LDH and CFA assays) | IC50 ([4]; all 10 cell lines, irrespective of MCT-1 expression) |
| --- | --- | --- | --- | --- | --- | --- | --- | --- | --- | --- | --- | --- | --- |
| O=C(O)C(=O)CBr [3-BP, 3-bromopyruvate] | ~130 µM | 10 to 200 µM | > 200 µM | ~220 µM | profound protection; also recorded: excess pyruvate was able to completely prevent cell death | 15 to 60 µM | 150 to 300 µM | – | – | – | – | – | – |
| C=C(C)[C@@H]1CC=C(COC(=O)C(=O)CBr)CC1 [NEO218, 3-bromo-2-oxo-propionic acid 4-isopropenyl-cyclohex-1-enylmethyl ester] | – | 5 to 30 µM | – | – | no protection at all when pyruvate was added; also recorded: pyruvate had no effect on viability at all | – | – | 15 to 40 µM | more potent cancer cell killing effects than 3-BP in all cell lines | much more potent than any other treatment | effectively killed | maintained the same high potency | 15 to 25 µM |

Source: patent US10858305B2, “Perillyl alcohol-3-bromopyruvate conjugate and methods of treating cancer” (NeOnc Technologies, Inc., priority 2016, dated 2020)
